Data published in publication PMC2956624, “Context-Dependent Cell Cycle Checkpoint Abrogation by a Novel Kinase Inhibitor” (PLoS ONE, 2010).

Tested on: HT29 cells
Experiment: Flow cytometry cell cycle profiles, HT29
Format: cell-based, human
Settings: for abrogation of DNA damage induced cell cycle arrest: DNA damaging agent 16 hours, then PF-477736 (400 nM) or VX680 (400 nM) 48 hours
Experimental: Fixed cells were analyzed by flow cytometry.
All cells were harvested, fixed in 70% ethanol and stained with propidium iodide/RNase A. Cell cycle profiles were examined by flow cytometry using a FACSArray cytometer (BD) and FACSDiva software (BD).

Row | SMILES | abrogation of DNA damage induced cell cycle arrest | cells remaining arrested in G2 or M (100 nM paclitaxel 18 hours, then 24 hours with 200 nM VER-150548 or 400 nM VX680 (DMSO 65.4%)) [%] | cell cycle effect as single agent (unperturbed cells, 8 to 48 hours)
1 | Cn1cc(-c2[nH]c3cc(NC(=O)[C@H](N)C4CCCCC4)cc4c3c2C=NNC4=O)cn1 [PF-477736] | abrogated DNA damage induced cell cycle arrest |  | 
2 | Cc1cc(Nc2cc(N3CCN(C)CC3)nc(Sc3ccc(NC(=O)C4CC4)cc3)n2)[nH]n1 [VX680] | unable to override the DNA damage induced arrest | 28.5 | caused G2/M arrest at early time points and subsequent reduplication following extended incubation
